According to US11708348B2, “Protease inhibitors for treatment of coronavirus infections” (The Scripps Research Institute, priority 2021, dated 2023):
Like-named read-outs stand apart in the source and are kept apart here.

System: SARS-CoV-2 strain USA-WA1/2020
Assay: microbe, parasite or virus in culture
Type: cell-based
Conditions: Severe acute respiratory syndrome coronavirus 2, HeLa-ACE2, 24 h, HeLa-ACE2 cells, SARS-CoV-2 infection, 24 h, read-out: EC50, uM (Hela)

Row | SMILES | EC50 (class symbols) [µM] | EC50 [µM]
1 | COc1cccc(F)c1NC(=O)C(=O)N[C@@H](CC(C)C)C(=O)N[C@@H](C[C@@H]1CCNC1=O)C(=O)COC(F)(F)F [Compound 166, N1-(2-fluoro-6-methoxyphenyl)-N2-((S)-4-methyl-1-oxo-1-(((S)-3-oxo-1-((S)-2-oxopyrrolidin-3-yl)-4-(trifluoromethoxy)butan-2-yl)amino)pentan-2-yl)oxalamide] | < 0.05 | –
2 | O=C1NCC[C@H]1C[C@H](NC(=O)[C@@H]1CC2(CC2)CN1C(=O)[C@H](O)C/C=C/c1ccc(F)cc1)C(=O)COC(F)(F)F [Compound 667, (S)-5-((R,E)-5-(4-fluorophenyl)-2-hydroxypent-4-enoyl)-N-((S)-3-oxo-1-((S)-2-oxopyrrolidin-3-yl)-4-(trifluoromethoxy)butan-2-yl)-5-azaspiro[2.4]heptane-6-carboxamide] | – | 0.05 to 0.2
3 | CC(C)(C)[C@H](NC(=O)C(=O)Nc1ccccc1F)C(=O)N[C@@H](C[C@@H]1CCNC1=O)C(=O)COc1c(F)c(F)cc(F)c1F [Compound 119, N1-((S)-3,3-dimethyl-1-oxo-1-(((S)-3-oxo-1-((S)-2-oxopyrrolidin-3-yl)-4-(2,3,5,6-tetrafluorophenoxy)butan-2-yl)amino)butan-2-yl)-N2-(2-fluorophenyl)oxalamide] | 0.2 to 0.5 | –
4 | CC(C)(C)c1ccccc1NC(=O)C(=O)N1CC2(CC2)C[C@H]1C(=O)N[C@@H](C[C@@H]1CCNC1=O)C(=O)COC(F)(F)F [Compound 613, (S)-5-(2-((2-(tert-butyl)phenyl)amino)-2-oxoacetyl)-N-((S)-3-oxo-1-((S)-2-oxopyrrolidin-3-yl)-4-(trifluoromethoxy)butan-2-yl)-5-azaspiro[2.4]heptane-6-carboxamide] | – | < 0.05
5 | CC(C)(C(=O)N1CC2(CC2)C[C@H]1C(=O)N[C@@H](C[C@@H]1CCNC1=O)C(=O)COC(F)(F)F)c1ccccc1 [Compound 619, (S)-5-(2-methyl-2-phenylpropanoyl)-N-((S)-3-oxo-1-((S)-2-oxopyrrolidin-3-yl)-4-(trifluoromethoxy)butan-2-yl)-5-azaspiro[2.4]heptane-6-carboxamide] | – | < 0.05
6 | O=C1NCC[C@H]1C[C@H](NC(=O)[C@@H]1[C@H]2CCC[C@H]2CN1C(=O)c1noc2c1COCC2)C(=O)COC(F)(F)F [Compound 549, (1S,3aR,6aS)-2-(6,7-dihydro-4H-pyrano[3,4-d]isoxazole-3-carbonyl)-N-((S)-3-oxo-1-((S)-2-oxopyrrolidin-3-yl)-4-(trifluoromethoxy)butan-2-yl)octahydrocyclo-penta[c]pyrrole-1-carboxamide] | – | 0.05 to 0.2
7 | O=C(Nc1ccccc1Cl)C(=O)N[C@@H](CC1CCCCC1)C(=O)N[C@@H](C[C@@H]1CCNC1=O)C(=O)COc1c(F)c(F)cc(F)c1F [Compound 92, N1-(2-chlorophenyl)-N2-((S)-3-cyclohexyl-1-oxo-1-(((S)-3-oxo-1-((S)-2-oxopyrrolidin-3-yl)-4-(2,3,5,6-tetrafluorophenoxy)butan-2-yl)amino)propan-2-yl)oxalamide] | < 0.05 | –
8 | CC(C)(C)c1ccc(C(=O)N2CC3(CC3)C[C@H]2C(=O)N[C@@H](C[C@@H]2CCNC2=O)C(=O)COC(F)(F)F)cc1 [Compound 453, (S)-5-(4-(tert-butyl)benzoyl)-N-((S)-3-oxo-1-((S)-2-oxopyrrolidin-3-yl)-4-(trifluoromethoxy)butan-2-yl)-5-azaspiro[2.4]heptane-6-carboxamide] | – | < 0.05
9 | CC(C)C[C@H](NC(=O)c1c[nH]c2ncccc12)C(=O)N[C@@H](C[C@@H]1CCNC1=O)C(=O)COC(F)(F)F [Compound 249, N-((S)-4-methyl-1-oxo-1-(((S)-3-oxo-1-((S)-2-oxopyrrolidin-3-yl)-4-(trifluoromethoxy)butan-2-yl)amino)pentan-2-yl)-1H-pyrrolo[2,3-b]pyridine-3-carboxamide] | 0.2 to 0.5 | –
10 | CC(C)C[C@H](Nc1cc2ccccc2[nH]c1=O)C(=O)N[C@@H](C[C@@H]1CCNC1=O)C(=O)COC(F)(F)F [Compound 465, (S)-4-methyl-2-((2-oxo-1,2-dihydroquinolin-3-yl)amino)-N-((S)-3-oxo-1-((S)-2-oxopyrrolidin-3-yl)-4-(trifluoromethoxy)butan-2-yl)pentanamide] | – | 0.2 to 0.5
11 | Cc1ccc(F)cc1NC(=O)C(=O)N[C@@H](CC(C)C)C(=O)N[C@@H](C[C@@H]1CCNC1=O)C(=O)COc1c(F)c(F)cc(F)c1F [Compound 83, Nl-(5-fluoro-2-methylphenyl)-N2-((S)-4-methyl-1-oxo-1-(((S)-3-oxo-1-((S)-2-oxopyrrolidin-3-yl)-4-(2,3,5,6-tetrafluorophenoxy)butan-2-yl)amino)pentan-2-yl)oxalamide] | < 0.05 | –
12 | [2H]C([2H])([2H])C(C(=O)N1CC2(CC2)C[C@H]1C(=O)N[C@@H](C[C@@H]1CCNC1=O)C(=O)COC(F)(F)F)C([2H])([2H])[2H] [Compound 739, (S)-5-(2-(methyl-d3)propanoyl-3,3,3-d3)-N-((S)-3-oxo-1-((S)-2-oxopyrrolidin-3-yl)-4-(trifluoromethoxy)butan-2-yl)-5-azaspiro[2.4]heptane-6-carboxamide] | – | 0.05 to 0.2
13 | CC(C)C[C@H](NC(=O)[C@H](O)C(C)C)C(=O)N[C@@H](C[C@@H]1CCNC1=O)C(=O)COC(F)(F)F [Compound 355, (S)-2-((R)-2-hydroxy-3-methylbutanamido)-4-methyl-N-((S)-3-oxo-1-((S)-2-oxopyrrolidin-3-yl)-4-(trifluoromethoxy)butan-2-yl)pentanamide] | 0.05 to 0.2 | –
14 | O=C1NCC[C@H]1C[C@H](NC(=O)[C@@H]1CC2(CC2)CN1C(=O)[C@H](O)CC(F)F)C(=O)COC(F)(F)F [Compound 450, (S)-5-((R)-4,4-difluoro-2-hydroxybutanoyl)-N-((S)-3-oxo-1-((S)-2-oxopyrrolidin-3-yl)-4-(trifluoromethoxy)butan-2-yl)-5-azaspiro[2.4]heptane-6-carboxamide] | – | 0.05 to 0.2
15 | CC(C)C[C@H](NC(=O)OCc1ccccc1)C(=O)N[C@@H](C[C@@H]1CCNC1=O)C(=O)COc1c(F)c(F)cc(F)c1F [Compound 15, benzyl ((S)-4-methyl-1-oxo-1-(((S)-3-oxo-1-((S)-2-oxopyrrolidin-3-yl)-4-(2,3,5,6-tetrafluorophenoxy)butan-2-yl)amino)pentan-2-yl)carbamate] | 0.2 to 0.5 | –
16 | O=C1NCC[C@H]1C[C@H](NC(=O)[C@@H]1CC2(CC2)CN1C(=O)C(O)(c1ccccc1)C(F)(F)F)C(=O)COC(F)(F)F (stereo partly drawn) [Compound 681, (6S)-N-((S)-3-oxo-1-((S)-2-oxopyrrolidin-3-yl)-4-(trifluoromethoxy)butan-2-yl)-5-(3,3,3-trifluoro-2-hydroxy-2-phenylpropanoyl)-5-azaspiro[2.4]heptane-6-carboxamide] | – | 0.05 to 0.2
17 | CC(C)(C)NC(=O)C(=O)N1C[C@@H]2C(F)CC[C@@H]2[C@H]1C(=O)N[C@@H](C[C@@H]1CCNC1=O)C(=O)COC(F)(F)F (stereo partly drawn) [Compound 601, (1S,3aR,6aS)-2-(2-(tert-butylamino)-2-oxoacetyl)-4-fluoro-N-((S)-3-oxo-1-((S)-2-oxopyrrolidin-3-yl)-4-(trifluoromethoxy)butan-2-yl)octahydrocyclo-penta[c]pyrrole-1-carboxamide] | – | 0.05 to 0.2
18 | Cc1ccccc1NC(=O)C(=O)N[C@@H](CC1CCCCC1)C(=O)N[C@@H](C[C@@H]1CCNC1=O)C(=O)COc1c(F)c(F)cc(F)c1F [Compound 93, N1-((S)-3-cyclohexyl-1-oxo-1-(((S)-3-oxo-1-((S)-2-oxopyrrolidin-3-yl)-4-(2,3,5,6-tetrafluorophenoxy)butan-2-yl)amino)propan-2-yl)-N2-(o-tolyl)oxalamide] | < 0.05 | –
19 | CC(C)(NC(=O)C(=O)N1C[C@@H]2CCC[C@@H]2[C@H]1C(=O)N[C@@H](C[C@@H]1CCNC1=O)C(=O)COC(F)(F)F)C(F)F [Compound 554, (1S,3aR,6aS)-2-(2-((1,1-difluoro-2-methylpropan-2-yl)amino)-2-oxoacetyl)-N-((S)-3-oxo-1-((S)-2-oxopyrrolidin-3-yl)-4-(trifluoromethoxy)butan-2-yl)octahydro-cyclopenta[c]pyrrole-1-carboxamide] | – | 0.05 to 0.2
20 | CN(C)S(=O)(=O)NCC(=O)N1CC2(CC2)C[C@H]1C(=O)N[C@@H](C[C@@H]1CCNC1=O)C(=O)COC(F)(F)F [Compound 692, (S)-5-((N,N-dimethylsulfamoyl)glycyl)-N-((S)-3-oxo-1-((S)-2-oxopyrrolidin-3-yl)-4-(trifluoromethoxy)butan-2-yl)-5-azaspiro[2.4]heptane-6-carboxamide] | – | 0.2 to 0.5
21 | CC(C)(C)NC(=O)O[C@@H](C(=O)N1CC2(CC2)C[C@H]1C(=O)N[C@@H](C[C@@H]1CCNC1=O)C(=O)COC(F)(F)F)C(C)(C)C [Compound 327, (R)-3,3-dimethyl-1-oxo-1-((S)-6-(((S)-3-oxo-1-((S)-2-oxopyrrolidin-3-yl)-4-(trifluoromethoxy)butan-2-yl)carbamoyl)-5-azaspiro[2.4]heptan-5-yl)butan-2-yl tert-butylcarbamate] | 0.5 to 1 | –
22 | O=C(Nc1ccccc1F)C(=O)N1CC2(CCOCC2)CC1C(=O)N[C@@H](C[C@@H]1CCNC1=O)C(=O)COC(F)(F)F (stereo partly drawn) [Compound 530, 2-(2-((2-fluorophenyl)amino)-2-oxoacetyl)-N-((S)-3-oxo-1-((S)-2-oxopyrrolidin-3-yl)-4-(trifluoromethoxy)butan-2-yl)-8-oxa-2-azaspiro[4.5]decane-3-carboxamide] | – | 0.5 to 1
23 | CC[C@H](O)C(=O)N1C[C@H]2[C@@H]([C@H]1C(=O)N[C@@H](C[C@@H]1CCNC1=O)C(=O)COC(F)(F)F)C2(C)C [Compound 370, (1R,2S,5S)-3-((S)-2-hydroxybutanoyl)-6,6-dimethyl-N-((S)-3-oxo-1-((S)-2-oxopyrrolidin-3-yl)-4-(trifluoromethoxy)butan-2-yl)-3-azabicyclo[3.1.0]-hexane-2-carboxamide] | 0.05 to 0.2 | –
24 | O=C1NCC[C@H]1C[C@H](NC(=O)[C@@H]1CC2(CC2)CN1C(=O)[C@@H]1CCCO1)C(=O)COC(F)(F)F [Compound 679, (S)-N-((S)-3-oxo-1-((S)-2-oxopyrrolidin-3-yl)-4-(trifluoromethoxy)butan-2-yl)-5-((S)-tetrahydrofuran-2-carbonyl)-5-azaspiro[2.4]heptane-6-carboxamide] | – | 0.2 to 0.5
